Experimental data: ChEMBL document CHEMBL2146439, “Synthesis and pharmacological evaluation of a novel series of 3-aryl-2-(2-substituted-4-methylthiazole-5-yl)thiazolidin-4-one as possible anti-inflammatory and antimicrobial agents” (2012)
Values after ≈ are worked out from the molar mass of the structure shown. Active and inactive are the calls of the source. No cut-off for these calls is given here.

What was measured:
Type in all cases: functional
Rattus norvegicus [1] = test: Antiinflammatory activity in Wistar albino rat assessed as inhibition of carrageenan-induced paw edema at 40 mg/kg, po administered 1 hr prior to carrageenan challenge measured 4 hrs post carrageenan challenge relative to control
Aspergillus niger = test: Antifungal activity against Aspergillus niger ATCC 9029 after 2 days by microdilution broth method; details: ATCC 9029, 48 h
Escherichia coli = test: Antibacterial activity against Escherichia coli ATCC 25922 after 2 days by microdilution broth method; details: ATCC 25922, 48 h
Rattus norvegicus [2] = test: Antiinflammatory activity in Wistar albino rat assessed as inhibition of carrageenan-induced paw edema at 40 mg/kg, po administered 1 hr prior to carrageenan challenge measured 2 hrs post carrageenan challenge relative to control
Candida albicans = test: Antifungal activity against Candida albicans ATCC 10231 after 2 days by microdilution broth method; details: ATCC 10231, 48 h
Rattus norvegicus [3] = test: Antiinflammatory activity in Wistar albino rat assessed as inhibition of carrageenan-induced paw edema at 40 mg/kg, po administered 1 hr prior to carrageenan challenge measured 1 hr post carrageenan challenge relative to control
Staphylococcus aureus = test: Antibacterial activity against Staphylococcus aureus ATCC 25923 after 2 days by microdilution broth method; details: ATCC 25923, 48 h

| SMILES | inhibition in vivo at 40 mg/kg (Rattus norvegicus [1]) [%] | MIC (Aspergillus niger) [µM] | MIC (Escherichia coli) [µM] | inhibition in vivo at 40 mg/kg (Rattus norvegicus [2]) [%] | MIC (Candida albicans) [µM] | inhibition in vivo at 40 mg/kg (Rattus norvegicus [3]) [%] | MIC (Staphylococcus aureus) [µM] | inhibition (Rattus norvegicus [1]) | inhibition (Rattus norvegicus [2]) | inhibition (Rattus norvegicus [3]) |
| --- | --- | --- | --- | --- | --- | --- | --- | --- | --- | --- |
| Cc1ccc(N2C(=O)CSC2c2sc(Cc3ccc(Cl)cc3)nc2C)cc1 (configuration not stated) | 81.3 | 15.1 (≈ 6.25 µg/mL) | 60.2 (≈ 25 µg/mL) | 61.4 | 30.1 (≈ 12.5 µg/mL) | 59.9 | 60.2 (≈ 25 µg/mL) |  |  |  |
| Cc1nc(Cc2ccc(Cl)cc2)sc1C1SCC(=O)N1c1ccccc1 (configuration not stated) |  | 33.9 (≈ 13.6 µg/mL) | 67.8 (≈ 27.2 µg/mL) |  | 33.9 (≈ 13.6 µg/mL) |  | 67.8 (≈ 27.2 µg/mL) | inactive | inactive | inactive |
| Cc1nc(Cc2ccc(Cl)cc2)sc1C1SCC(=O)N1c1ccc(Cl)cc1 (configuration not stated) | 53.9 | 28.7 (≈ 12.5 µg/mL) | 57.4 (≈ 25 µg/mL) | 40.1 | 28.7 (≈ 12.5 µg/mL) | 48.9 | 28.7 (≈ 12.5 µg/mL) |  |  |  |
| Cc1ccc(N2C(=O)CSC2c2sc(-c3ccc(Cl)cc3)nc2C)cc1 (configuration not stated) | 63.9 | 31.2 (≈ 12.5 µg/mL) | 31.2 (≈ 12.5 µg/mL) | 37.6 | 15.6 (≈ 6.25 µg/mL) | 38.3 | 31.2 (≈ 12.5 µg/mL) |  |  |  |
| Cc1nc(Cc2ccc(Cl)cc2)sc1C1SCC(=O)N1c1ccc(F)cc1 (configuration not stated) |  | 14.9 (≈ 6.25 µg/mL) | 59.7 (≈ 25 µg/mL) |  | 14.9 (≈ 6.25 µg/mL) |  | 59.7 (≈ 25 µg/mL) |  |  |  |
| COc1ccc(N2C(=O)CSC2c2sc(-c3ccc(Cl)cc3)nc2C)cc1 (configuration not stated) | 59.1 | 30 (≈ 12.5 µg/mL) | 30 (≈ 12.5 µg/mL) | 80.7 | 30 (≈ 12.5 µg/mL) | 54 | 30 (≈ 12.5 µg/mL) |  |  |  |
| COc1ccc(N2C(=O)CSC2c2sc(-c3ccccc3)nc2C)cc1 (configuration not stated) | 67.1 | 32.8 (≈ 12.5 µg/mL) | 65.5 (≈ 25.1 µg/mL) | 48.1 | 32.8 (≈ 12.5 µg/mL) | 52.3 | 65.5 (≈ 25.1 µg/mL) |  |  |  |
| COc1ccc2c(c1)c(CC(=O)O)c(C)n2C(=O)c1ccc(Cl)cc1 [INDOMETHACIN] | 87.3 |  |  | 78.3 |  | 70.2 |  |  |  |  |
| OC(Cn1cncn1)(Cn1cncn1)c1ccc(F)cc1F [FLUCONAZOLE] |  | 5.09 (≈ 1.56 µg/mL) |  |  | 2.55 (≈ 0.781 µg/mL) |  |  |  |  |  |
| O=C(O)c1cn(C2CC2)c2cc(N3CCNCC3)c(F)cc2c1=O [CIPROFLOXACIN] |  |  | 2.35 (≈ 0.779 µg/mL) |  |  |  | 4.7 (≈ 1.56 µg/mL) |  |  |  |
| COc1ccc(N2C(=O)CSC2c2sc(Cc3ccc(Cl)cc3)nc2C)cc1 (configuration not stated) | 55.9 | 14.5 (≈ 6.25 µg/mL) | 58 (≈ 25 µg/mL) | 28.6 | 14.5 (≈ 6.25 µg/mL) | 20.9 | 58 (≈ 25 µg/mL) |  |  |  |
| Cc1nc(-c2ccccc2)sc1C1SCC(=O)N1c1ccccc1 (configuration not stated) | 63.7 | 142 (≈ 50 µg/mL) | 70.9 (≈ 25 µg/mL) | 50.6 | 142 (≈ 50 µg/mL) | 44.4 | 70.9 (≈ 25 µg/mL) |  |  |  |
| Cc1nc(-c2ccc(Cl)cc2)sc1C1SCC(=O)N1c1ccccc1 (configuration not stated) |  | 129 (≈ 50 µg/mL) | 32.3 (≈ 12.5 µg/mL) |  | 129 (≈ 50 µg/mL) |  | 32.3 (≈ 12.5 µg/mL) |  |  |  |
| Cc1nc(-c2ccc(Cl)cc2)sc1C1SCC(=O)N1c1ccc(F)cc1 (configuration not stated) | 67.6 | 61.7 (≈ 25 µg/mL) | 15.4 (≈ 6.25 µg/mL) | 63.9 | 30.9 (≈ 12.5 µg/mL) | 63.4 | 30.9 (≈ 12.5 µg/mL) |  |  |  |
| Cc1nc(Cc2ccc(Cl)cc2)sc1C1SCC(=O)N1c1ccc(F)c(Cl)c1 (configuration not stated) | 68.9 | 27.6 (≈ 12.5 µg/mL) | 55.1 (≈ 25 µg/mL) | 45.1 | 27.6 (≈ 12.5 µg/mL) | 40.7 | 55.1 (≈ 25 µg/mL) |  |  |  |
| Cc1nc(-c2ccccc2)sc1C1SCC(=O)N1c1ccc(F)cc1 (configuration not stated) | 85.3 | 33.7 (≈ 12.5 µg/mL) | 33.7 (≈ 12.5 µg/mL) | 63.4 | 33.7 (≈ 12.5 µg/mL) | 63.9 | 67.5 (≈ 25 µg/mL) |  |  |  |
| Cc1nc(-c2ccccc2)sc1C1SCC(=O)N1c1ccc(Cl)cc1 (configuration not stated) | 80.8 | 129 (≈ 50 µg/mL) | 64.6 (≈ 25 µg/mL) | 59.1 | 129 (≈ 50 µg/mL) | 54.8 | 129 (≈ 50 µg/mL) |  |  |  |
| Cc1nc(-c2ccccc2)sc1C1SCC(=O)N1c1ccc(F)c(Cl)c1 (configuration not stated) | 28.6 | 123 (≈ 50 µg/mL) | 61.7 (≈ 25 µg/mL) | 20.9 | 123 (≈ 50 µg/mL) | 55.9 | 61.7 (≈ 25 µg/mL) |  |  |  |
| Cc1nc(-c2ccc(Cl)cc2)sc1C1SCC(=O)N1c1ccc(F)c(Cl)c1 (configuration not stated) | 65.1 | 114 (≈ 50 µg/mL) | 56.9 (≈ 25 µg/mL) | 45.1 | 114 (≈ 50 µg/mL) | 53.4 | 56.9 (≈ 25 µg/mL) |  |  |  |
| Cc1nc(-c2ccc(Cl)cc2)sc1C1SCC(=O)N1c1ccc(Cl)cc1 (configuration not stated) | 43.1 | 119 (≈ 50 µg/mL) | 29.7 (≈ 12.5 µg/mL) | 45.7 | 119 (≈ 50 µg/mL) | 69.3 | 59.3 (≈ 25 µg/mL) |  |  |  |
| Cc1ccc(N2C(=O)CSC2c2sc(-c3ccccc3)nc2C)cc1 (configuration not stated) | 80.6 | 30.2 (≈ 11.1 µg/mL) | 60.4 (≈ 22.1 µg/mL) | 60.1 | 30.2 (≈ 11.1 µg/mL) | 58.1 | 121 (≈ 44.3 µg/mL) |  |  |  |
